Usually IC50 stands for the concentration needed to halve the response being measured. Low readings indicate inhibition by little substance, high ones a need for much substance.

Each structure is given as a SMILES string. A value given as a limit tells only on which side of the number the result lay.

Results on 42 molecules are retold here after patent publication US20060264460A1 (Wyeth, priority 2005, published 2006).

T1 sequence (P41279 30-398): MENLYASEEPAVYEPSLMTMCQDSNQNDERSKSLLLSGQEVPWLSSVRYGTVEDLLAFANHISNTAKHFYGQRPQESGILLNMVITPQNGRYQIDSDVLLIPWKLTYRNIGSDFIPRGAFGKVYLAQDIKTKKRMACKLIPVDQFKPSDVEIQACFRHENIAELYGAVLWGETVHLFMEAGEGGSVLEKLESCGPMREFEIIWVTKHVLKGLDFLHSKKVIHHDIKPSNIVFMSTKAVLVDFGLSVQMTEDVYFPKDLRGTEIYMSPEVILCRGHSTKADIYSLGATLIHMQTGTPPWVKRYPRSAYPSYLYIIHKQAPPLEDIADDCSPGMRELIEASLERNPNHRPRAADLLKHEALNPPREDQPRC

One assay concerns the target T1, human Cot/Tpl2 kinase (Homo sapiens, UniProt P41279).
T1 construct: human Cot/Tpl2 kinase construct encoding residues 30-398; 6His (N); made in house; host or cells: Sf9 insect cells, baculovirus system (BD Biosciences)
As to the kind of experiment: Tpl2/Cot kinase assay: GST-MEK1 phosphorylation detected by ELISA (DELFIA Eu). The assay is classed as biochemical. To be noted: 0.4 nM Tpl2, 35 nM GST-MEK1, 50 uM ATP, 1 h at 30° C. As for the experimental part: Sf9 cells expressing the kinase were lysed in 50 mM NaPhosphate pH=8; 300 mM NaCl; 5 mM imidazole; 0.1 mM EGTA; 25 mM beta-glycerophosphate; 1% TX-100, 1% glycerol; 6 mM beta-mercaptoethanol and protease inhibitors. The lysate was clarified by centrifugation and was loaded onto a Ni-Sepharose column. The column was washed with 50 mM NaPhosphate pH=8; 300 mM NaCl; 15 mM imidazole; 1% glycerol; and 6 mM beta-mercaptoethanol. His-Tpl2 was eluted with 50 mM NaPhosphate pH=8; 300 mM NaCl; 250 mM imidazole; 1% glycerol; and 6 mM beta-mercaptoethanol. The eluted protein was further purified by size exclusion chromatography. Fractions corresponding to monomeric Tpl2 were then used in the assay.
Tpl2/Cot activity was directly assayed using GST-MEK1 as a substrate. GST-MEK1 phosphorylation on serine residues 217 and 221 was detected by ELISA. 0.4 nM Tpl2 was incubated with 35 nM GST-MEK1 in a kinase reaction buffer containing 20 mM MOPS pH=7.2; 50 uM ATP; 20 mM MgCl2; 1 mM DTT; 25 mM β-glycerophosphate; 5 mM EGTA; and 1 mM sodium orthovanadate for 1 h at 30° C. The compounds of the inventions solubilized in 100% DMSO were pre-diluted in assay buffer so that the final concentration of DMSO in the reaction was 1%. The kinase reaction was carried out in 100 ul volume on 96 well plates. The kinase reaction was then stopped with the addition of 100 mM EDTA. […] After a 1 hour incubation at room temperature, the detection plate was washed 4 times with TBST (TBS+0.05% Tween 20) and then incubated for another hour at room temperature with anti phospho-MEK1 antibody (Cell Signaling) 1:1000 in 10 mM MOPS 7.5; 150 mM NaCl; 0.05% Tween 20; 0.1% Gelatin; 0.02% NaN3; and 1% BSA. The detection plate was washed again and incubated for 30 min with DELFIA Europium (Eu) labeled goat anti-rabbit IgG (Perkin-Elmer), 1:4000 in the same buffer used for the primary incubation. After a final wash, Eu detection solution was added to each well and the Eu signal was measured in a Wallac Victor^2 Multilabel Counter. IC50 calculations were performed using the XLfit software package (IDBS, Guildford, UK).
On the technique in general: In an ELISA, binding on a coated surface is turned into a signal by an enzyme label.
With `CN(C)C(=O)c1cc(NCc2ccn[nH]2)cc2c(Nc3ccc(F)c(Cl)c3)c(C#N)cnc12` [Example 89, 6-((1H-pyrazol-5-yl)methylamino)-4-(3-chloro-4-fluorophenylamino)-3-cyano-N,N-dimethylquinoline-8-carboxamide], the IC50 was found to be 290 nM. Same read-out and setting: next, `N#Cc1cc(CNc2ccc3ncc(C#N)c(Nc4ccc(F)c(Cl)c4)c3c2)ccc1OCC(=O)O` [Example 34, (4-{[4-(3-Chloro-4-fluoro-phenylamino)-3-cyano-quinolin-6-ylamino]-methyl}-2-cyano-phenoxy)-acetic acid]: 260 nM; `COCC(=O)NCCn1cc(CNc2cc(Br)c3ncc(C#N)c(Nc4ccc(F)c(Cl)c4)c3c2)nn1` [Example 218, N-(2-(4-((8-bromo-4-(3-chloro-4-fluorophenylamino)-3-cyanoquinolin-6-ylamino)methyl)-1H-1,2,3-triazol-1-yl)ethyl)-2-methoxyacetamide]: 32 nM; `Cn1nc(C(C)(C)C)cc1Nc1c(C#N)cnc2ccc(NCc3cnc[nH]3)cc12` [Example 261, 4-[(3-tert-butyl-1-methyl-1H-pyrazol-5-yl)amino]-6-[(1 H-imidazol-5-ylmethyl)amino]quinoline-3-carbonitrile]: > 40000 nM.

As to `N#Cc1cnc2c(F)cc(NCc3cccc[n+]3[O-])cc2c1Nc1ccc(F)c(Cl)c1` [Example 266, 4-[(3-chloro-4-fluorophenyl)amino]-8-fluoro-6-{[(1-oxidopyridin-2-yl)methyl]amino}quinoline-3-carbonitrile], the IC50 worked out at 13 nM. As for `CC(O)Cc1nn[nH]c1CNc1cc(Br)c2ncc(C#N)c(Nc3ccc(F)c(Cl)c3)c2c1` (stereo not drawn) [Example 318, 8-bromo-4-(3-chloro-4-fluorophenylamino)-6-((5-(2-hydroxypropyl)-3H-1,2,3-triazol-4-yl)methylamino)quinoline-3-carbonitrile], the IC50 is 5.7 nM. The same measure, in the same setting: next, `N#Cc1cnc2ccc(NCC3CCNC3)cc2c1Nc1ccc(F)c(Cl)c1` (stereo not drawn) [Example 62, 4-(3-Chloro-4-fluoro-phenylamino)-6-[(pyrrolidin-3-ylmethyl)-amino]-quinoline-3-carbonitrile]: > 40000 nM; `CN(C)C=Nc1cc(Cl)c2ncc(C#N)c(Nc3ccc(F)c(Cl)c3)c2c1` [Example 206, N′-{8-chloro-4-[(3-chloro-4-fluorophenyl)amino]-3-cyanoquinolin-6-yl}-N,N-dimethylimidoformamide]: 7400 nM. On the same count and under the same terms, with `C[C@H](Nc1ccc2ncc(C#N)c(Nc3ccc(F)c(Cl)c3)c2c1)c1ccccn1` [Example 173, (S)-4-(3-chloro-4-fluorophenylamino)-6-(1-(pyridin-2-yl)ethylamino)quinoline-3-carbonitrile] the figure was > 40000 nM; with `N#Cc1cnc2ccc(NCc3cccnc3)cc2c1Nc1cccc(Cl)c1` [Example 72, 4-(3-chlorophenylamino)-6-(pyridin-3-ylmethylamino)quinoline-3-carbonitrile], 24 nM. On the same count and under the same terms, with `N#Cc1cnc2c(Cl)cc(NCCn3ccnc3)cc2c1Nc1ccc(F)c(Cl)c1` [Example 212, 8-chloro-4-[(3-chloro-4-fluorophenyl)amino]-6-{[2-(1H-imidazol-1-yl)ethyl]amino}quinoline-3-carbonitrile] the figure was 400 nM; with `CS(=O)(=O)c1cccc(CNc2ccc3ncc(C#N)c(NC4CCCCCC4)c3c2)c1` [Example 248, 4-(cycloheptylamino)-6-{[3-(methylsulfonyl)benzyl]amino}quinoline-3-carbonitrile], 2500 nM; with `N#Cc1cnc2c(Br)cc(NCc3nn[nH]c3CO)cc2c1Nc1ccc(F)c(Cl)c1` [Example 294, 8-Bromo-4-(3-chloro-4-fluoro-phenylamino)-6-[(5-hydroxymethyl-1H-[1,2,3]triazol-4-ylmethyl)-amino]-quinoline-3-carbonitrile], 500 nM.

The assay is the same for the next values; noted with them: Table 2; Tpl2/Cot kinase, GST-MEK1 substrate, 50 uM ATP.
Turning to `N#Cc1cnc2c(Cl)cc(NCc3cn(CC4CCCNC4)nn3)cc2c1Nc1ccc(F)c(Cl)c1` (stereo not drawn) [Example 546], inhibition was half-maximal at 48 nM (IC50). The same measure, in the same setting: next, `N#Cc1cnc2c(CCO)cc(NCc3cnc[nH]3)cc2c1Nc1ccc(F)c(Cl)c1` [Example 462]: 1200 nM; `Cc1[nH]c(-c2cccnc2)nc1CNc1cc(Cl)c2ncc(C#N)c(Nc3ccc(F)c(Cl)c3)c2c1` [Example 444]: 20600 nM. On the same count and under the same terms, next, `Cn1cc(Cl)c(CNc2ccc3ncc(C#N)c(Nc4ccc(F)c(Cl)c4)c3c2)n1` [Example 389]: > 40000 nM. The same measure, in the same setting: with `N#Cc1cnc2c(Cl)cc(NCC(=O)NCCCN3CCOCC3)cc2c1Nc1ccc(F)c(Cl)c1` [Example 604] the figure was > 3000 nM; with `N#Cc1cnc2ccc(NCCN3CCOCC3)cc2c1Nc1cccc(Cl)c1` [Example 350], 690 nM; with `N#Cc1cnc2ccc(NCc3cccc(C(N)=O)c3)cc2c1Nc1ccc(F)c(Cl)c1` [Example 399], 460 nM.

As to `N#Cc1cnc2c(CO)cc(NCc3cnc[nH]3)cc2c1Nc1ccc(F)c(Cl)c1` [Example 464], the half-inhibitory concentration (IC50) was determined as 570 nM. Regarding `N#Cc1cnc2ccc(NCc3ccc(=O)n(CCN4CCOCC4)c3)cc2c1Nc1ccc(F)c(F)c1` [Example 345], inhibition was half-maximal at 1700 nM (IC50). The same measure, in the same setting: with `COCCCNC(=O)CNc1cc(Cl)c2ncc(C#N)c(Nc3ccc(F)c(Cl)c3)c2c1` [Example 606] the figure was 230 nM. The same measure, in the same setting: next, `CCN(C[C@@H]1CCCN1C(=O)OC(C)(C)C)c1cc(Cl)c2ncc(C#N)c(Nc3ccc(F)c(Cl)c3)c2c1` [Example 623]: > 3000 nM; `CC(C)(C)OC(=O)COc1ccc(CNc2ccc3ncc(C#N)c(Nc4ccc(F)c(Cl)c4)c3c2)cc1Br` [Example 381]: > 40000 nM; `N#Cc1cnc2c(Br)cc(NCc3cc(C4CCNCC4)n[nH]3)cc2c1Nc1ccc(F)c(Cl)c1` [Example 537]: 800 nM. With `N#Cc1cnc2c(Br)cc([N+](=O)[O-])cc2c1Nc1cccc(Cl)c1` [Example 362], the IC50 was > 10000 nM.

The same assay, now with this note: Tpl2/Cot kinase, GST-MEK1 substrate, 50 uM ATP.
Turning to `CN(C)C(=O)N1CCC(CCn2cc(CNc3cc(Cl)c4ncc(C#N)c(Nc5ccc(F)c(Cl)c5)c4c3)nn2)CC1` [Example 830], the IC50 amounted to 19 nM. The same measure, in the same setting: next, `CC(C)N1CCC(Cn2cc(CNc3cc(Br)c4ncc(C#N)c(Nc5ccc(F)c(Cl)c5)c4c3)nn2)CC1` [Example 736]: 29 nM; `N#Cc1cnc2c(Cl)cc(NCC(O)CO)cc2c1Nc1ccc(F)c(Cl)c1` (stereo not drawn) [Example 797]: 590 nM.

As for `N#Cc1cnc2c(Cl)cc(NCC(=O)NCc3ccccn3)cc2c1Nc1ccc(F)c(Cl)c1` [Example 780], the IC50 came out at 330 nM. Still for that read-out and setting: with `CC(C)(C)OC(=O)N1CCC(CCn2cc(CNc3cc(Cl)c4ncc(C#N)c(Nc5ccc(F)c(Cl)c5)c4c3)nn2)CC1` [Example 674] the figure was 75 nM; with `CC(C)(C)OC(=O)N1CCCC(Cn2cc(CNc3cc(Br)c4ncc(C#N)c(Nc5ccc(F)c(Cl)c5)c4c3)nn2)C1` (stereo not drawn) [Example 713], 120 nM; with `CN(C)C(=O)Cn1cc(CNc2cc(Cl)c3ncc(C#N)c(Nc4ccc(F)c(Cl)c4)c3c2)nn1` [Example 788], 5 nM.

In turn, `CS(=O)(=O)N1CCC(n2cc(CNc3cc(Br)c4ncc(C#N)c(Nc5ccc(F)c(Cl)c5)c4c3)nn2)CC1` [Example 710] returned an IC50 of 1.1 nM. This IC50 lies about 4.5-fold lower than the previous one. Same read-out and setting: next, `N#Cc1cnc2c(Br)cc(NCc3cn(CCc4ccncc4)nn3)cc2c1Nc1ccc(F)c(Cl)c1` [Example 919]: 1.3 nM.

The assay is the same for the next values; noted with them: Tpl2/Cot kinase, GST-MEK1 substrate, 50 uM ATP, 1 h at 30° C.; Table 2.
Molecule `COC(=O)N1CCC(n2cc(CNc3cc(Cl)c4ncc(C#N)c(Nc5ccc(F)c(Cl)c5)c4c3)nn2)CC1` [Example 980] gave an IC50 of 24 nM. That is a double-digit nanomolar value.

`Cn1cc(CNc2cc(Cl)c3ncc(C#N)c(Nc4ccc(F)c(Cl)c4)c3c2)cn1` [Example 1026]: it took 290 nM to reach half-maximal inhibition (IC50). Consider `N#Cc1cnc2c(Cl)cc(NCc3cncc(C(O)(C(F)(F)F)C(F)(F)F)c3)cc2c1Nc1ccc(F)c(Cl)c1` [Example 1019], for which the IC50 is > 3000 nM. As for `CC(C)(C)OC(=O)N1CCC(n2cc(CNc3cc(Cl)c4ncc(C#N)c(NC5CCCC5)c4c3)nn2)CC1` [Example 943], the IC50 was > 3000 nM.

The molecule `CN(C)CCCc1csc(CNc2cc(Cl)c3ncc(C#N)c(Nc4ccc(F)c(Cl)c4)c3c2)c1` [Example 1022] gave an IC50 of 980 nM. Still for that read-out and setting: with `N#Cc1cnc2c(Cl)cc(NCc3cn(C4CCNCC4)nn3)cc2c1NC1CCC2(CCCCC2)CC1` [Example 978] the figure was > 3000 nM.
